Source: patent US10576050B2, “Methods and compositions for treatment of cancer” (ONCONOVA THERAPEUTICS, INC., priority 2012, dated 2020)

Assay: Phase I/II study of Rigosertib continuous IV infusion in relapsed or refractory AML or transformed MPN
Settings: for concentration at 6 h: human, in vivo, 2400 mg/day, average plasma levels, 2400 mg/day CIV
Procedure: (§1) Methods: The patients were >18 years of age with relapsed or refractory AML or transformed myeloproliferative neoplasms (MPN). Patients were given Rigosertib by continuous IV infusions over 24 hours with a fixed dose of 2400 mg/day either for 72 hrs or 120 hrs every other week using a standard dose escalation scheme. A blood sample was withdrawn at 6 hrs after the start of infusion during cycle 1 and cycle 2 to assess the plasma concentration of Rigosertib. The study was subsequently amended and, after 2 cycles of IV Rigosertib (each cycle being 2 weeks) patients received Rigosertib orally, 560 mg twice a day continuously for 20 weeks. The objectives of Phase I study were to define maximum tolerated dose (MTD), dose limiting toxicities (DLT), and identify all toxicities and anti-leukemia activity. Phase II primary objective was to determine the clinical efficacy; secondary objectives were to assess time to response or progression, duration of response and overall survival at 6 months.
as §1, with “Patients with” for “Methods: The patients were >18 years of age with”, “neoplasms (MPN)” for “neoplasms (MPN). Patients”, “hours (hrs)” for “hours”, “of phase 1” for “of Phase I”, “(DLT),” for “(DLT), and”, “Phase 2” for “Phase II”

SMILES: COc1cc(OC)c(/C=C/S(=O)(=O)Cc2ccc(OC)c(NCC(=O)[O-])c2)c(OC)c1.[Na+] [Rigosertib, sodium (E)-2-{2-methoxy-5-[(2′,4′,6′-trimethoxystyrylsulfonyl)methyl]phenylamino}acetate]
- patients with transient hematologic response with improvement of platelets (4 patients): 16%
- absolute reduction of peripheral blasts (best response, stabilization of disease) (after 2 cycles): > 50%
- patients with stabilization of disease with >50% absolute reduction of peripheral blasts (after 2 cycles, 2/25 patients): 8%
- patients with peripheral blasts maintained at +/−10% of pretreatment level (after 2 cycles, 4 patients): 16%
- concentration at 6 h (week 1, 6 hrs after start of infusion): 9.2 ± 5.05 µM
- concentration at 6 h (week 3, 6 hrs after start of infusion): 9.81 ± 6.7 µM
- toxicity profile (main adverse event transient AMS (altered mental status)): acceptable toxicity profile
- DLT dose (over 24 hrs): 2400 mg
- MTD (over 24 hrs for 3 days, CIV): 2400 mg
